We go through nine compounds from publication PMC6151456, “Screening a Natural Product-Based Library against Kinetoplastid Parasites” (Molecules : A Journal of Synthetic Chemistry and Natural …, 2017).

In one assay the test system is L. donovani. More on the design: method as in PMID 28498323. The note with it: cited from earlier work.
A further assay concerns T. b. rhodesiense. More on the design: method as in PMID 28498323. Particulars: cited from earlier work.
For assay [1], the system named is T. cruzi. More on the design: method as in PMID 28498323. The note with it: cited from earlier work.
For assay [2], the system named is NF54 strain of Plasmodium falciparum. More on the design: method as in PMID 28498323. The note with it: read-out: IC50, P. falciparum NF54; cited from earlier work.
Assay [3] concerns L. donovani DD8 promastigotes. As to the kind of experiment: L. donovani DD8 promastigote viability assay (resazurin). Particulars: Leishmania donovani. Format: cell-based, Leishmania donovani. The procedure:
(§1) For the primary screen, compounds were prepared as a stock concentration of 5 mM in 100% DMSO and tested in duplicate points for two independent experiments (n = 2) at final assay concentrations of 20 µM and 16.7 µM for the L. donovani intracellular amastigote and promastigote viability assays, respectively. Primary screening against T. b. brucei was undertaken at 5 µM and for T. cruzi at 10 µM final concentrations. […] These compounds were then retested in a 14 point format to determine the IC50 value against the parasite, and against HEK-293, THP-1 and 3T3 cells to determine the selectivity to the parasite. […] A top dose of 20 µM was used in the T. b. brucei assay and 18.3 µM for T.cruzi assay, in 14 point dose repsonse curves as described.
This assay was established to assess the activity of the compound library on the extracellular form of the parasites. An initial cell density of 1 × 10^5 parasites/mL was inoculated into a 75 cm^2 flask (in a total of 30 mL of M199 medium + 10% (v/v) HIFBS) and incubated at 27 °C. After 96 h the parasites reached the mid-log phase and were seeded in black, clear bottom 384-well plates (Greiner-bio-one®, Monroe, UT, USA) at a concentration of 5 × 10^5 parasites/mL in a volume of 55 µL using a Bravo automated liquid handling platform (Agilent, Santa Clara, CA, USA). Compound stocks were diluted 1:25 in M199 media without HIFBS using a dilution plate (Greiner-bio-one®, Monroe, UT, USA). The compounds were dispensed in 5 µL using a Bravo and parasites incubated for an additional 68 h at 27 °C. Resazurin (Cayman Chemicals®, Ann Arbor, MI, USA) at 0.142 mM final assay concentration was then dispensed into plates at a volume of 10 µL/well using a Multidrop™ 384 Reagent Dispenser (Thermo Scientific®, Newington, NH, USA) and incubated at 27 °C. The plates were read after 4 h on an EnVision™ Multilabel plate reader (PerkinElmer, Waltham, MA, USA) using fluorometry with an excitation of 530 nm and emission 590 nm. For the L. donovani DD8 promastigote viability assay, 1 µM of amphotericin B was used as positive control and 0.4% DMSO as negative control.
(The colour change of resazurin is a common sign of viable cells or microbes.)

Assay [4] concerns L. donovani DD8 intracellular amastigotes. Kind of assay: L. donovani DD8 intracellular amastigote high content imaging assay. Type of assay: cell-based, Leishmania donovani. The note with it: Leishmania donovani; n = 2; 14 point dose response, top 20 µM; read-out: IC50 (mean ± SD), L. donovani DD8 intracellular amastigotes. The procedure:
as §1
A high content, high-throughput imaging assay was used to identify compounds active against L. donovani DD8 intracellular amastigotes as described previosuly.

The subject of assay [5] is T. b. brucei bloodstream form strain 427. As to the kind of experiment: T. b. brucei resazurin viability assay. The note with it: for IC50: Trypanosoma brucei, n = 2, 14 point dose response, top 20 µM, read-out: IC50 (mean ± SD), T. b. brucei. Type of assay: cell-based, Trypanosoma brucei brucei. The procedure:
as §1
The efficacy of compounds against T. b. brucei bloodstream form was evaluated using a resazurin-based assay, previously described in the literature.

Assay [6] deals with T. cruzi intracellular amastigotes. Kind of assay: T. cruzi intracellular amastigote image-based assay. Format: cell-based, Trypanosoma cruzi. The note with it: for IC50: Trypanosoma cruzi, intracellular amastigotes, n = 2, top 18.3 µM, read-out: IC50 (mean ± SD), T. cruzi. As to the method:
as §1
(§2) The efficacy of compounds against T. cruzi was undertaken using a phenotypic, high-throughput image-based assay as previously described.

The subject of a further assay is HEK-293 cells. As to the kind of experiment: HEK-293 resazurin viability assay (cytotoxicity, selectivity). Format: cell-based, human. As to the method: (§3) Primary screening against T. b. brucei was undertaken at 5 µM and for T. cruzi at 10 µM final concentrations.
Cytotoxicity testing was undertaken as previously described.

A further assay concerns THP-1 cells. As to the kind of experiment: THP-1 cytotoxicity (selectivity). Type of assay: cell-based, human. The procedure: as §1
Assay [7] concerns L. donovani (MHOM/SD/62/1S-CL2D) axenic amastigotes. Also on record: method as in PMID 15679330. The note with it: strain MHOM/SD/62/1S-CL2D; cited from earlier work.
A further assay deals with T. b. brucei variant 221. The note with it: cited from earlier work.
Assay [8] has as its system L. mexicana intracellular amastigotes. More on the design: method as in PMID 15679330. The note with it: at 41.89 µM; cited from earlier work.
Assay [9] concerns T. b. brucei. More on the design: method as in PMID 20696141. Particulars: cited from earlier work.
Assay [10] has as its system 3T3 host cells. Kind of assay: 3T3 host cell cytotoxicity (selectivity). Format: cell-based, mouse. The note with it: relative to T. cruzi. The procedure: as §3, §2
Assay [11] relates to T. cruzi. More on the design: method as in PMID 25033456. Particulars: cited from earlier work.
Assay [12] deals with 3T3 host cells. More on the design: method as in PMID 25033456. The note with it: relative to T. cruzi; cited from earlier work.
The test system of assay [13] is T. b. brucei. More on the design: method as in PMID 18833031. Particulars: cited from earlier work.
The subject of another assay is P. falciparum (3D7). The note with it: cited from earlier work.
For another assay, the system named is P. falciparum (Dd2). The note with it: cited from earlier work.
The next assay concerns malaria infection. More on the design: method as in PMID 25490858. Particulars: mouse, oral administration; cited from earlier work.
In another assay the test system is L. donovani amastigotes. More on the design: method as in PMID 22720099. Particulars: previously reported; read-out: IC50, amastigote assay; cited from earlier work.
For a further assay, the system named is L. donovani DD8. More on the design: method as in PMID 7592170. The note with it: compared to other strains; cited from earlier work.
Where [14] appears, read: relative to L. donovani DD8 intracellular amastigotes.
Where [15] appears, read: relative to L. donovani DD8 promastigotes.

Structures can show the parent of a compound that is named as a salt. Where two headings read alike, the source gives them in different places.

A word on the IC50: it is the concentration that gives 50% inhibition. For `CCCCCCC/C=C/C=C/C(=O)NCCc1ccc(O)cc1` [dodeca-2E,4E-dienoic acid 4-hydroxy-2-phenyl-ethylamide], the IC50 in the assay with L. donovani was 4.19 ± 1.64 µM; in the assay with T. b. rhodesiense, 2.26 ± 0.18 µM; in the assay with T. cruzi [1] it was 1.88 µM; in [2] it was 3.18 ± 0.2 µM.
Broadly, the inhibition is how much of the control response was suppressed. A lower inhibition goes with little suppression. `COc1c(C)c(O)c(C(=O)/C=C/c2ccccc2)c(O)c1C` [Compound 13, (E)-1-(2,6-dihydroxy-4-methoxy-3,5-dimethylphenyl)-3-phenylprop-2-en-1-one]: in [3], the inhibition at 16.7 µM is 100%. The concentration for half-maximal inhibition (IC50) is 5.65 ± 0.26 µM in assay [4], 16.8 ± 4.35 µM in assay [7] and 21.1 ± 3.68 µM in the assay on T. b. brucei variant 221. Besides, the “activity against T. b. brucei” value in [5] is given as “no significant activity”. Also, the “activity against T. cruzi” value in assay [6] was “no significant activity”. Besides, the “Selectivity index (SI) compared to HEK-293 cells” value in the assay with HEK-293 cells (setting [14]) is given as ~ 12; in the assay on HEK-293 cells (relative to L. donovani DD8 intracellular amastigotes, listed as Chalcone analogue (13)), 11.87. Further, the “Selectivity index (SI) compared to THP-1 cells” value in the assay with THP-1 cells (setting [14]) is on record as 3.59. In assay [8], the “reduction in infection of L. mexicana intracellular amastigotes” value is recorded as 96 ± 2%.
For `CC[C@H]1CN2CCc3cc(OC)c(OC)cc3[C@@H]2C[C@@H]1C[C@H]1NCCc2cc(OC)c(OC)cc21` [Compound 10, Emetine dihydrochloride, reference compound], the inhibition at 16.7 µM in assay [3] was 100%. Besides, the IC50 in the assay on T. b. brucei [9] is 7.9 µM.
The EC50 is the concentration that produces a half-maximal response. As to `OC(c1cc(C(F)(F)F)nc2c(C(F)(F)F)cccc12)C1CCCCN1` (centres unmarked) [Compound 8, Mefloquine HCl, reference compound], 16.7 µM produced 100% inhibition in assay [3]. Besides, the IC50 was 0.62 ± 0.06 µM in assay [5] and 3.96 ± 0.58 µM in [6]. The “Selectivity index (SI) compared to HEK-293 cells” value in the assay on HEK-293 cells (relative to T. b. brucei) is recorded as 7.97; in the assay with HEK-293 cells (relative to T. cruzi), above 5.06. For the same compound, the “Selectivity index (SI) compared to 3T3 cells” value with 3T3 host cells [10] is listed as above 1.70. Also, the concentration giving a half-maximal response (EC50) with T. cruzi [11] is 6.1 µM. In addition, the “SI to 3T3 host cells” value in the assay with 3T3 host cells [12] is 2.
Regarding `COc1ccc2c(c[n+](C)c3c4cc5c(cc4ccc23)OCO5)c1OC` [Compound 15, Chelerythrine chloride, reference compound], the half-maximal inhibitory concentration (IC50) was 0.23 ± 0.04 µM in [5] and 1.3 µM in the assay on T. b. brucei [13]. For the same compound, the “Selectivity index (SI) compared to HEK-293 cells” value in the assay on HEK-293 cells (relative to T. b. brucei, listed as Chelerythrine chloride (15)) is recorded as above 18.71.
Regarding `NCCc1c[nH]c2c1C(=O)C1=C(NC=CS1(=O)=O)C2=O` [Compound 3, Thiaplakortone A], the IC50 in assay [5] was 3.94 ± 0.78 µM; in assay [6] it was 4.26 ± 0.65 µM; in the assay with P. falciparum (3D7) (read-out: IC50, chloroquine-sensitive (3D7) P. falciparum), 0.051 µM; in the assay with P. falciparum (Dd2) (read-out: IC50, multi-drug resistant (Dd2) P. falciparum) it was 0.0066 µM. Besides, the entries for the “Selectivity index (SI) compared to HEK-293 cells” value in the assay with HEK-293 cells (relative to T. b. brucei) and in the assay on HEK-293 cells (relative to T. cruzi) were 0.70 and 0.53, respectively. In addition, in the assay with 3T3 host cells [10], the “Selectivity index (SI) compared to 3T3 cells” value was 1.06. Besides, in the assay with malaria infection, the suppression of parasitemia result is on record as “did not suppress parasitemia”.
As for `CCCCCCCCCCCCCCCCOP(=O)([O-])OCC[N+](C)(C)C` [Miltefosine, reference compound], the half-maximal inhibitory concentration (IC50) in assay [3] (n = 2, 14 point dose response, top 16.7 µM, read-out: IC50 (mean ± SD), L. donovani DD8 promastigotes) is 3.48 ± 0.26 µM; in assay [4], 2.54 ± 0.57 µM; in the assay with L. donovani amastigotes, 3.1 ± 2.3 µM. Also, the “Selectivity index (SI) compared to HEK-293 cells” value with HEK-293 cells (setting [14]) is above 13.12; in the assay on HEK-293 cells (setting [15]), above 9.57. The “Selectivity index (SI) compared to THP-1 cells” value is reported as above 7.27 in the assay on THP-1 cells (setting [14]) and above 5.74 in the assay with THP-1 cells (setting [15]).
Turning to `Cc1ccc(S(=O)(=O)n2ccc3c2C(=O)C2=C(NCCS2(=O)=O)C3=O)cc1` [Compound 7, 6-tosyl-2,3-dihydro-[1, 4]thiazino[3,2-f]indole-5,9(1H,6H)-dione 4,4-dioxide], the half-maximal inhibitory concentration (IC50) was 0.68 ± 0.01 µM in assay [5]; 3.55 ± 0.38 µM in assay [6]; 0.546 ± 0.119 µM with P. falciparum (3D7) (read-out: IC50, 3D7 strain of P. falciparum); 0.509 ± 0.0309 µM in the assay with P. falciparum (Dd2) (read-out: IC50, Dd2 strain of P. falciparum). For the same compound, the “Selectivity index (SI) compared to HEK-293 cells” value with HEK-293 cells (relative to T. b. brucei) stood at 4.19; in the assay on HEK-293 cells (relative to T. cruzi), 1.46. The “Selectivity index (SI) compared to 3T3 cells” value in the assay on 3T3 host cells [10] worked out at 1.33.
With parmomycin, the “activity against L. donovani DD8” value with L. donovani DD8 is “negligible activity”.
